Patent US5591741A, “Fungicidal spiroheterocyclic derivatives” (American Cyanamid Company, priority 1993, dated 1997)

Key:
Phytophthora infestans = assay type: in vivo; conditions: tomato, direct protectant foliar spray
Botrytis cinerea = experiment: Direct protectant activity against broad bean grey mould (BCB); assay type: in vivo; conditions: direct protectant foliar spray, 600 ppm, 4 days
In short: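 Protectant foliar test: lesion coverage assessed 4 days after inoculation and rated relative to untreated or diluent-sprayed plants. Compound applied at 600 ppm to cv The Sutton leaves 24 h before 10^6 conidia/ml suspension; incubation at 22 °C in high humidity.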

Alternaria solani = experiment: Activity against tomato early blight (AS); assay type: in vivo; conditions: Table VI; tomato seedlings, contact prophylactic foliar spray, 4 days
In short: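 Plants were challenged with A. solani conidia (10^4 spores/ml) 24 h after a protective foliar spray of compound in 50:50 acetone/water plus 0.04% Tween 20. Held humid at 21° C for 4 days, then percent leaf area with lesions was scored as a rating relative to controls.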

Leptosphaeria nodorum = experiment: Activity against wheat leafspot (LN); assay type: in vivo; conditions: direct therapeutic foliar spray, 600 ppm, 6-8 days
In short: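 Therapeutic foliar spray: compound at 600 ppm applied to single-leaf wheat (cv Norman) 24 h after inoculation with 1.5×10^6 conidia/ml. Disease control scored after 6-8 days at 22° C and 70% humidity as lesions per leaf versus untreated or diluent-sprayed controls.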

[1] = test system: Erysiphe graminis f.sp. hordei; experiment: Activity against barley powdery mildew, direct therapeutic (EGT); assay type: in vivo; conditions: direct therapeutic foliar spray, 600 ppm, up to 7 days
In short: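 A curative spray at 600 ppm was applied to single-leaf Golden Promise barley inoculated with powdery mildew conidia the previous day. After up to 7 days at 18 °C and 40% humidity, disease control was rated from percent leaf area sporulating relative to untreated or diluent-sprayed controls.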

Pyricularia oryzae = assay type: in vivo; conditions: rice seedlings, direct therapeutic foliar spray, 600 ppm, 4-5 days
[2] = test system: Pseudocercosporella herpotrichoides; experiment: Activity against wheat eyespot in-vitro (PHI); assay type: cell-based; conditions: 10 ppm, 10 days, 20° C., mycelial growth
In short: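 Mycelial growth was scored after 10 days at 20 °C against untreated or diluent controls. The broth was half-strength potato dextrose, holding 10 ppm test compound (from acetone) and 5×10^4 fragments/ml of the eyespot fungus.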

[3] = test system: Erysiphe graminis f.sp. hordei; experiment: Direct protectant activity against barley powdery mildew (EGP); assay type: in vivo; conditions: direct protectant foliar spray, 8 days
In short: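 Rating reflects percentage of leaf area with sporulation compared with untreated or diluent-sprayed controls. Protectant spray was applied to single-leaf barley (cv Golden Promise) 24 h before conidia inoculation. Plants were kept at 18 °C and 40% RH throughout, with 8 days of disease development.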

Plasmopara viticola = experiment: Antisporulant activity against vine downy mildew (PVA); assay type: in vivo; conditions: vine leaves, antisporulant foliar spray, 600 ppm, 750 l/ha
In short: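 Cabernet Sauvignon vines (~8 cm) inoculated on lower leaf surfaces with 5×10^4 zoosporangia/ml, held 24 h at 21° C high humidity then 24 h glasshouse. Infected leaves sprayed underside with 600 ppm compound in 1:1 water/acetone, 0.04% Tween 20, 750 l/ha; 96 h glasshouse, 24 h humidity. Sporulating leaf area rated versus control.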

Venturia inaequalis = experiment: Activity against apple scab in-vitro (VII); assay type: cell-based; conditions: 10 ppm, 10 days, 20° C., mycelial growth
In short: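 V. inaequalis propagules (5×10^4/ml, malt agar-grown) were exposed in half-strength PDB to 10 ppm final test compound delivered in acetone. Growth was scored after incubation for 10 days at 20° C, as a rating relative to untreated or diluent-sprayed controls.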

Rhizoctonia solani = experiment: Activity against Rhizoctonia in-vitro (RSI); assay type: cell-based; conditions: 10 ppm, 10 days, 20° C., mycelial growth
In short: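 Compound at a final 10 ppm (acetone vehicle) in half-strength PDB, inoculated with 5×10^4 fragments/ml of shaken-culture R. solani mycelium. After incubation at 20° C for 10 days, growth scored as a rating versus untreated or diluent-treated controls.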

Row | SMILES | disease control rating PIP (Phytophthora infestans) | disease control rating BCB (Botrytis cinerea) | disease control rating AS (Alternaria solani) | disease control rating LN (Leptosphaeria nodorum) | disease control rating EGT [1] | disease control rating PO (Pyricularia oryzae) | disease control rating PHI [2] | disease control rating EGP [3] | disease control rating PVA (Plasmopara viticola) | disease control rating VII (Venturia inaequalis) | disease control rating RSI (Rhizoctonia solani)
1 | CC(C)(C)C1CCC2(CC1)CC(NC1CCCCC1)CO2 (centres unmarked) [Compound 16] | 0 (less than 50% disease control) | 1 (about 50-80% disease control) | 2 (greater than 80% disease control) | 1 (about 50-80% disease control) | 2 (greater than 80% disease control) | 0 (less than 50% disease control) | 0 (less than 50% disease control) | 2 (greater than 80% disease control) | 0 (less than 50% disease control) | 2 (greater than 80% disease control) | 0 (less than 50% disease control)
2 | CC1CCCCN1C1COC2(CCC(C(C)(C)C)CC2)C1 (centres unmarked) [Compound 17] | 0 (less than 50% disease control) | 0 (less than 50% disease control) | 0 (less than 50% disease control) | 0 (less than 50% disease control) | 2 (greater than 80% disease control) | 0 (less than 50% disease control) | 0 (less than 50% disease control) | 2 (greater than 80% disease control) | 0 (less than 50% disease control) | 0 (less than 50% disease control) | 0 (less than 50% disease control)
3 | CC1CCCN(C2COC3(CCC(C(C)(C)C)CC3)C2)C1 (centres unmarked) [Compound 18] | 0 (less than 50% disease control) | 0 (less than 50% disease control) | 0 (less than 50% disease control) | 1 (about 50-80% disease control) | 2 (greater than 80% disease control) | 0 (less than 50% disease control) | 0 (less than 50% disease control) | 2 (greater than 80% disease control) | 0 (less than 50% disease control) | 1 (about 50-80% disease control) | 0 (less than 50% disease control)
4 | CC1CCN(C2COC3(CCC(C(C)(C)C)CC3)C2)CC1 (centres unmarked) [Compound 19] | 0 (less than 50% disease control) | 0 (less than 50% disease control) | 0 (less than 50% disease control) | 1 (about 50-80% disease control) | 2 (greater than 80% disease control) | 0 (less than 50% disease control) | 0 (less than 50% disease control) | 2 (greater than 80% disease control) | 0 (less than 50% disease control) | 1 (about 50-80% disease control) | 0 (less than 50% disease control)
5 | CN(C1CCCCC1)C1COC2(CCC(C(C)(C)C)CC2)C1 (centres unmarked) [Compound 20] | 0 (less than 50% disease control) | 0 (less than 50% disease control) | 0 (less than 50% disease control) | 0 (less than 50% disease control) | 2 (greater than 80% disease control) | 0 (less than 50% disease control) | 0 (less than 50% disease control) | 2 (greater than 80% disease control) | 0 (less than 50% disease control) | 1 (about 50-80% disease control) | 0 (less than 50% disease control)
6 | CC(C)(C)C1CCC2(CC1)CC(N1CCCCCC1)CO2 (centres unmarked) [Compound 21] | 0 (less than 50% disease control) | 2 (greater than 80% disease control) | 0 (less than 50% disease control) | 0 (less than 50% disease control) | 2 (greater than 80% disease control) | 0 (less than 50% disease control) | 0 (less than 50% disease control) | 2 (greater than 80% disease control) | 0 (less than 50% disease control) | 1 (about 50-80% disease control) | 0 (less than 50% disease control)
7 | CC(C)(C)C1CCC2(CC1)CC(Nc1ccccc1)CO2 (centres unmarked) [Compound 22] | 0 (less than 50% disease control) | 0 (less than 50% disease control) | 0 (less than 50% disease control) | 0 (less than 50% disease control) | 1 (about 50-80% disease control) | 0 (less than 50% disease control) | 0 (less than 50% disease control) | 1 (about 50-80% disease control) | 0 (less than 50% disease control) | 0 (less than 50% disease control) | 0 (less than 50% disease control)
8 | CC(C)(C)C1CCC2(CC1)CC(Nc1ccc(Cl)cc1)CO2 (centres unmarked) [Compound 23] | 0 (less than 50% disease control) | 0 (less than 50% disease control) | 0 (less than 50% disease control) | 0 (less than 50% disease control) | 0 (less than 50% disease control) | 0 (less than 50% disease control) | 0 (less than 50% disease control) | 0 (less than 50% disease control) | 0 (less than 50% disease control) | 2 (greater than 80% disease control) | 0 (less than 50% disease control)
9 | CC(C)(C)c1ccc(NC2COC3(CCC(C(C)(C)C)CC3)C2)cc1 (centres unmarked) [Compound 24] | 0 (less than 50% disease control) | 0 (less than 50% disease control) | 0 (less than 50% disease control) | 0 (less than 50% disease control) | 0 (less than 50% disease control) | 0 (less than 50% disease control) | 0 (less than 50% disease control) | 0 (less than 50% disease control) | 0 (less than 50% disease control) | 0 (less than 50% disease control) | 0 (less than 50% disease control)
10 | CCCCc1ccc(NC2COC3(CCC(C(C)(C)C)CC3)C2)cc1 (centres unmarked) [Compound 25] | 0 (less than 50% disease control) | 0 (less than 50% disease control) | 0 (less than 50% disease control) | 0 (less than 50% disease control) | 0 (less than 50% disease control) | 0 (less than 50% disease control) | 0 (less than 50% disease control) | 0 (less than 50% disease control) | 0 (less than 50% disease control) | 0 (less than 50% disease control) | 0 (less than 50% disease control)
